{"source": "DBAASP", "assay_in_all_cases": "≥ marks a high value that may be exact or a test limit, other limits are often not marked, values filed in µg/mL are converted to µM", "key": {"[1]": {"test_system": "Escherichia coli NCTC 10418"}, "[2]": {"test_system": "Candida albicans NCYC 1467"}, "[3]": {"test_system": "Staphylococcus aureus NCTC 12493"}, "[4]": {"test_system": "Klebsiella pneumoniae ATCC 43816"}, "[5]": {"test_system": "Pseudomonas aeruginosa ATCC 27853"}, "[6]": {"test_system": "Staphylococcus aureus NCTC 10788"}, "[7]": {"test_system": "Enterococcus faecalis NCTC 12697"}, "[8]": {"test_system": "Staphylococcus aureus SH1000"}, "[9]": {"test_system": "Cryptococcus neoformans ATCC 208821"}, "[10]": {"test_system": "Candida albicans ATCC 90028"}, "[11]": {"test_system": "Klebsiella pneumoniae ATCC 700603"}, "[12]": {"test_system": "Staphylococcus aureus ATCC 43300"}, "[13]": {"test_system": "Acinetobacter baumannii ATCC 19606"}, "[14]": {"test_system": "Escherichia coli ATCC 25922"}, "[15]": {"test_system": "Acinetobacter baumannii 7226/16"}, "[16]": {"test_system": "Staphylococcus aureus 1399/17"}, "[17]": {"test_system": "Klebsiella pneumoniae ESBL 344/17"}, "[18]": {"test_system": "Staphylococcus aureus ATCC 33591"}, "[19]": {"test_system": "Staphylococcus aureus SG511"}, "[20]": {"test_system": "Pseudomonas aeruginosa 522/17"}, "[21]": {"test_system": "Candida albicans FRR 5580"}, "[22]": {"test_system": "Pseudomonas aeruginosa ATCC 9027"}, "Staphylococcus aureus": {"test_system": "Staphylococcus aureus"}, "[23]": {"test_system": "Staphylococcus aureus ATCC 25923"}}, "note": "Several values for one entry are separate records, joined by “and”; a condition that tells them apart may be missing. Equal entries are not always repeated.", "data": [{"smiles": "CC(C)C[C@H](NC(=O)[C@H](CCC(N)=O)NC(=O)[C@H](CCC(N)=O)NC(=O)[C@H](C)NC(=O)CNC(=O)[C@H](C)NC(=O)[C@H](CCCCN)NC(=O)CNC(=O)[C@@H](NC(=O)[C@H](CCC(N)=O)NC(=O)[C@H](CCCCN)NC(=O)[C@H](CCCCN)NC(=O)[C@H](CC(C)C)NC(=O)[C@H](Cc1ccc(O)cc1)NC(=O)[C@H](CCCCN)NC(=O)[C@H](C)NC(=O)CNC(=O)[C@H](C)NC(=O)[C@H](CCCCN)NC(=O)[C@H](Cc1ccccc1)NC(=O)[C@H](CC(C)C)NC(=O)[C@H](CO)NC(=O)[C@H](CO)NC(=O)[C@H](Cc1ccccc1)NC(=O)CN)C(C)C)C(N)=O", "note": "[GFSSLFKAGAKYLKKQVGKAGAQQL]", "values": [{"measurement": "MIC", "setting": "[1]", "result": 8, "unit": "µM"}, {"measurement": "MIC", "setting": "[2]", "result": "≥ 64", "unit": "µM"}, {"measurement": "MIC", "setting": "[3]", "result": "≥ 64", "unit": "µM"}, {"measurement": "MIC", "setting": "[4]", "result": "≥ 128", "unit": "µM"}, {"measurement": "MIC", "setting": "[5]", "result": 16, "unit": "µM"}, {"measurement": "MIC", "setting": "[6]", "result": 16, "unit": "µM"}, {"measurement": "MIC", "setting": "[7]", "result": 16, "unit": "µM"}]}, {"smiles": "CC[C@H](C)[C@H](NC(=O)[C@H](CCCCN)NC(=O)[C@H](CC(C)C)NC(=O)[C@H](CC(C)C)NC(=O)[C@@H](N)CCCCN)C(=O)N[C@H](C(=O)N[C@@H](CCCCN)C(=O)N[C@@H](CCCCN)C(=O)N[C@H](C(=O)N[C@H](C(=O)NCC(=O)N[C@@H](C)C(=O)N[C@@H](CC(C)C)C(=O)NCC(N)=O)C(C)C)C(C)C)C(C)C", "note": "[KLLKIVKKVVGALG]", "values": [{"measurement": "MIC", "setting": "[8]", "result": "≥ 100", "unit": "µM"}]}, {"smiles": "CC(C)C[C@H](NC(=O)[C@H](C)NC(=O)CNC(=O)[C@H](CC(C)C)NC(=O)[C@H](CC(C)C)NC(=O)[C@H](CCCCN)NC(=O)[C@H](CCCCN)NC(=O)[C@H](CC(C)C)NC(=O)[C@H](CC(C)C)NC(=O)[C@H](CCCCN)NC(=O)[C@H](CC(C)C)NC(=O)[C@H](CC(C)C)NC(=O)[C@@H](N)CCCCN)C(=O)NCC(N)=O", "note": "[KLLKLLKKLLGALG]", "values": [{"measurement": "MIC", "setting": "[9]", "result": 3, "unit": "µM"}, {"measurement": "MIC", "setting": "[10]", "result": 11, "unit": "µM"}, {"measurement": "MIC", "setting": "[11]", "result": 5, "unit": "µM"}, {"measurement": "MIC", "setting": "[5]", "result": 21, "unit": "µM"}, {"measurement": "MIC", "setting": "[12]", "result": 3, "unit": "µM"}, {"measurement": "MIC", "setting": "[13]", "result": 1, "unit": "µM"}, {"measurement": "MIC", "setting": "[14]", "result": 1, "unit": "µM"}, {"measurement": "MIC", "setting": "[8]", "result": 10, "unit": "µM"}]}, {"smiles": "CC[C@H](C)[C@H](NC(=O)[C@H](CCCN=C(N)N)NC(=O)[C@@H](NC(=O)[C@@H]1CCCN1C(=O)[C@@H]1CCCN1C(=O)[C@H](CCCN=C(N)N)NC(=O)[C@H](CCCN=C(N)N)NC(=O)[C@H](Cc1ccccc1)NC(=O)[C@@H]1CCCN1C(=O)[C@H](CC(C)C)NC(=O)[C@H](CCCN=C(N)N)NC(=O)[C@H](Cc1ccccc1)NC(=O)[C@H](CCCN=C(N)N)NC(=O)[C@H](CCCN=C(N)N)NC(=O)[C@H](Cc1ccccc1)NC(=O)[C@@H](N)CCCN=C(N)N)[C@@H](C)CC)C(=O)N[C@@H](Cc1cnc[nH]1)C(N)=O", "note": "[RFRRFRLPFRRPPIRIH]", "values": [{"measurement": "MIC", "setting": "[15]", "result": "8 µM and 12.5 µM"}, {"measurement": "MIC", "setting": "[16]", "result": "4 µM and 6.2 µM"}, {"measurement": "MIC", "setting": "[17]", "result": "8 µM and 6.2 µM"}, {"measurement": "MIC", "setting": "[18]", "result": 8, "unit": "µM"}, {"measurement": "MIC", "setting": "[19]", "result": 0.5, "unit": "µM"}, {"measurement": "MIC", "setting": "[20]", "result": 16, "unit": "µM"}]}, {"smiles": "NCCCC[C@H](NC(=O)[C@H](Cc1c[nH]c2ccccc12)NC(=O)[C@H](Cc1c[nH]c2ccccc12)NC(=O)[C@@H](N)CCCN=C(N)N)C(=O)N[C@@H](Cc1c[nH]c2ccccc12)C(=O)N[C@@H](Cc1c[nH]c2ccccc12)C(N)=O", "note": "[RWWKWW]", "values": [{"measurement": "MIC", "setting": "[21]", "result": "≥ 61.1", "unit": "µM"}, {"measurement": "MIC", "setting": "[22]", "result": 30.6, "unit": "µM"}]}, {"smiles": "NCCCC[C@H](NC(=O)[C@H](Cc1c[nH]c2ccccc12)NC(=O)[C@H](Cc1c[nH]c2ccccc12)NC(=O)[C@H](CCCN=C(N)N)NC(=O)[C@H](Cc1c[nH]c2ccccc12)NC(=O)[C@@H](N)Cc1c[nH]c2ccccc12)C(=O)N[C@@H](Cc1c[nH]c2ccccc12)C(=O)N[C@@H](Cc1c[nH]c2ccccc12)C(N)=O", "note": "[WWRWWKWW]", "values": [{"measurement": "MIC", "setting": "Staphylococcus aureus", "result": 2.82, "unit": "µM"}, {"measurement": "MIC", "setting": "[23]", "result": 5.64, "unit": "µM"}, {"measurement": "MIC", "setting": "[14]", "result": 5.64, "unit": "µM"}, {"measurement": "MIC", "setting": "[21]", "result": "≥ 45.1", "unit": "µM"}, {"measurement": "MIC", "setting": "[22]", "result": 22.5, "unit": "µM"}]}]}
